Inconclusive results and toxic doses are left out.
Test system: L1210 leukemia ip in BDF1 mice, survival T/C
Assay: NCI In Vivo Anticancer Drug Screen. Data for tumor model L1210 Leukemia (intraperitoneal) in B6D2F1 (BDF1) mice
Details: endpoint: mean survival time, higher = longer survival
Outline: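 Antitumor effect is assessed in tumor-bearing animals. Survival in the compound arm is compared with a vehicle-dosed control arm and expressed as their quotient.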

[1] = dose: 100.0 mg/kg/injection, schedule: Q01DX009 (ip), vehicle: Klucel (hydroxypropylcellulose) (HPC)
[2] = dose: 200.0 mg/kg/injection, schedule: Q01DX009 (ip), vehicle: Klucel (hydroxypropylcellulose) (HPC)

NC(=O)CC1(O)CCCCC1
T/C (dose: 100.0 mg/kg/injection, schedule: Q04DX003 (ip), vehicle: saline): 114 % of control
T/C (dose: 200.0 mg/kg/injection, schedule: Q04DX003 (ip), vehicle: saline): 97 % of control
T/C (dose: 400.0 mg/kg/injection, schedule: Q04DX003 (ip), vehicle: saline): 97 % of control

C[CH2][Pb]([CH2]C)([CH2]C)[S]C(C)=O
T/C (dose: 1.5 mg/kg/injection, schedule: Q01DX009 (ip), vehicle: Klucel (hydroxypropylcellulose) (HPC)): 89 % of control
T/C (dose: 3.0 mg/kg/injection, schedule: Q01DX009 (ip), vehicle: Klucel (hydroxypropylcellulose) (HPC)): 101 % of control
T/C (dose: 12.5 mg/kg/injection, schedule: Q04DX002 (ip), vehicle: Klucel (hydroxypropylcellulose) (HPC)): 102 % of control

COc1cc(NS(C)(=O)=O)ccc1Nc1c2ccc([N+](=O)[O-])cc2nc2c(C)c(C)ccc12
T/C (dose: 0.48 mg/kg/injection, schedule: Q01DX009 (ip), vehicle: saline): 113 % of control
T/C (dose: 2.7 mg/kg/injection, schedule: Q01DX009 (ip), vehicle: saline): 151 % of control
T/C (dose: 4.1 mg/kg/injection, schedule: Q01DX009 (ip), vehicle: saline): 169 % of control
T/C (dose: 6.25 mg/kg/injection, schedule: Q01DX009 (ip), vehicle: water): 106 % of control
T/C (dose: 12.5 mg/kg/injection, schedule: Q01DX009 (ip), vehicle: saline): 157 % of control
T/C (dose: 12.5 mg/kg/injection, schedule: Q01DX009 (ip), vehicle: water): 116 % of control
T/C (dose: 22.0 mg/kg/injection, schedule: Q04DX003 (ip), vehicle: saline): 114 % of control
T/C (dose: 25.0 mg/kg/injection, schedule: Q01DX001 (ip), vehicle: water): 122 % of control
T/C (dose: 25.0 mg/kg/injection, schedule: Q01DX009 (ip), vehicle: saline): 102 % of control
T/C (dose: 25.0 mg/kg/injection, schedule: Q01DX009 (ip), vehicle: water): 124 % of control
T/C (dose: 25.0 mg/kg/injection, schedule: Q01DX009 (sc), vehicle: saline): 106 % of control
T/C (dose: 35.0 mg/kg/injection, schedule: Q04DX003 (ip), vehicle: saline): 120 % of control
T/C (dose: 50.0 mg/kg/injection, schedule: Q01DX009 (sc), vehicle: saline): 123 % of control
T/C (dose: 100.0 mg/kg/injection, schedule: Q01DX009 (sc), vehicle: saline): 115 % of control
T/C (dose: 200.0 mg/kg/injection, schedule: Q01DX009 (sc), vehicle: saline): 124 % of control
T/C (dose: 400.0 mg/kg/injection, schedule: Q01DX009 (ip), vehicle: water): 150 % of control

CCOC(=O)C(=O)c1cnc2c(OC)nn(O)cc1-2
T/C (dose: 12.5 mg/kg/injection, schedule: Q04DX002 (ip), vehicle: saline with Tween-80): 102 % of control
T/C (dose: 25.0 mg/kg/injection, schedule: Q04DX002 (ip), vehicle: saline with Tween-80): 109 % of control
T/C (dose: 50.0 mg/kg/injection, schedule: Q04DX002 (ip), vehicle: saline with Tween-80): 102 % of control

COC(=O)c1ccc(OC(=O)Nc2cccc(C(C)=O)c2)cc1
T/C [1]: 96 % of control
T/C [2]: 101 % of control
T/C (dose: 400.0 mg/kg/injection, schedule: Q01DX009 (ip), vehicle: Klucel (hydroxypropylcellulose) (HPC)): 104 % of control

CCC(C)OC(=O)Nc1cccc(OC(=O)NC(C)C)c1 (centres undefined)
T/C (dose: 100.0 mg/kg/injection, schedule: Q04DX003 (ip), vehicle: saline with Tween-80): 96 % of control
T/C (dose: 200.0 mg/kg/injection, schedule: Q04DX003 (ip), vehicle: saline with Tween-80): 102 % of control
T/C (dose: 400.0 mg/kg/injection, schedule: Q04DX003 (ip), vehicle: saline with Tween-80): 93 % of control

CCc1nc(N)nc(-c2ccccc2)c1-c1ccc([N+](=O)[O-])cc1O
T/C (dose: 100.0 mg/kg/injection, schedule: Q04DX003 (ip), vehicle: Klucel (hydroxypropylcellulose) (HPC)): 98 % of control
T/C (dose: 200.0 mg/kg/injection, schedule: Q04DX003 (ip), vehicle: Klucel (hydroxypropylcellulose) (HPC)): 95 % of control
T/C (dose: 400.0 mg/kg/injection, schedule: Q04DX003 (ip), vehicle: Klucel (hydroxypropylcellulose) (HPC)): 97 % of control

CC(=O)Nc1cc(N(CCOS(C)(=O)=O)CCOS(C)(=O)=O)ccc1N=O
T/C (dose: 0.05 mg/kg/injection, schedule: Q01DX015 (ip), vehicle: saline): 114 % of control
T/C (dose: 0.1 mg/kg/injection, schedule: Q01DX015 (ip), vehicle: saline): 123 % of control
T/C (dose: 0.2 mg/kg/injection, schedule: Q01DX015 (ip), vehicle: saline): 114 % of control
T/C (dose: 0.4 mg/kg/injection, schedule: Q01DX015 (ip), vehicle: saline): 114 % of control
T/C (dose: 1.0 mg/kg/injection, schedule: Q01DX015 (ip), vehicle: saline): 121 % of control
T/C (dose: 1.7 mg/kg/injection, schedule: Q01DX015 (ip), vehicle: saline): 119 % of control
T/C (dose: 7.5 mg/kg/injection, schedule: Q01DX001 (ip), vehicle: saline): 113 % of control
T/C (dose: 10.0 mg/kg/injection, schedule: Q01DX001 (ip), vehicle: saline): 124 % of control

O=C(Nc1cccc(F)c1)Nc1ccc(Cl)cc1Cl
T/C [1]: 96 % of control
T/C [2]: 91 % of control

— PubChem BioAssay AID248 (DTP/NCI, 2004)
